Results reported in article PMC4076215, “Nickel(II) Complex of Polyhydroxybenzaldehyde N4-Thiosemicarbazone Exhibits Anti-Inflammatory Activity by Inhibiting NF-κB Transactivation” (PLoS ONE, 2014).

Columns and labels:
[1] = system: IκBα degradation/phosphorylation and p65 translocation; test: Immunoblot, TNFα-stimulated HeLa S3; format: cell-based, human; settings: HeLa S3, pretreated 4 h, TNFα stimulation
Description: (§1) Cells were pretreated with or without of complex 5 (25 µg/ml or 50 µg/ml) for 4 h before treatment with LPS (10 ng/ml) or TNFα (10 ng/ml), for the indicated times. The cytoplasmic extracts were prepared by using the hypotonic lysis buffer (10 mM Tris, pH 7.5; 1.5 mM MgCl2; 10 mM KCl; 0.5 mM DTT; 0.5 mM PMSF; 1× Protease Inhibitor, 0.1% NP40) followed by incubation on ice for 20 min and centrifugation at 3k rpm at 4°C for 10 min. The supernatants were collected as cytoplasmic extracts. The nuclear pellets were resuspended in the whole cell lysis buffer (25 mM Tris, pH7.5; 420 mM NaCl; 1.5 mM MgCl2; 0.2 mM EDTA; 25% Glycerol; 0.5 mM DTT; 0.5 mM PMSF; 1× Protease Inhibitor). The nuclear extracts were then collected by centrifugation at 15 krpm at 4°C for 10 min. Immunoblotting was performed using antibodies against PARP (F-2, N-20), HSP90a (C-20), p65 (C-20), IκBα (C-21) and p-IκBα from Santa Cruz Biotech.
To examine whether complex 5 blocks the activation of NF-κB by another agonist, similar experiments were performed on HeLa S3 cells induced with TNFα. Similar to LPS-treated RAW264.7 cells, TNFα-induced translocation of NF-κB p65 in HeLa S3 cells (Figure 5A). […]
Figure 5 Complex 5 blocks TNFα-induced NF-κB nuclear translocation. […] Western blot signal intensities were quantified using ImageJ software. […]

[2] = system: IκBα degradation and p65 nuclear translocation; test: Immunoblot of cytoplasmic/nuclear extracts, LPS-stimulated RAW264.7; format: cell-based; settings: RAW264.7, pretreated 4 h, LPS stimulation
Description: as §1
Next, complex 5 was chosen for subsequent mechanistic study due to its potent inhibitory effect on NF-κB p65 nuclear translocation. […] Cytoplasmic and nuclear extracts were separated and analyzed with immunoblotting using anti-IκBα and anti-p65 antibodies (Figure 4A and 4B). […]
Figure 4 Complex 5 blocks LPS-induced NF-κB nuclear translocation by inhibiting IκBα degradation. […] Western blot signal intensities were quantified using ImageJ software. […]

[3] = system: NF-κB target genes TNFα, IFNβ, IL6 and IP10; test: Quantitative PCR of NF-κB target genes, LPS-treated RAW264.7; format: cell-based; settings: RAW264.7, pretreated 4 h, LPS 4 h
Description: Cells pretreated with or without of complex 5 for 4 h were incubated with LPS or TNFα for 4 h. Total RNAs were isolated with Thermo Scientific GeneJET RNA Purification Kit. Complimentary DNAs were synthesized and Quantitative PCR was performed with 2× SYBR Green PCR Master mix (Thermo Scientific) and run on the Bio-Rad CFX 96 Real-Time PCR System. All data were then normalized to L32. The sequences of the primers are listed in Supporting Information Table S1.
To test if complex 5 inhibits NF-κB-mediated gene expression, we cultured RAW264.7 cells with or without complex 5 for 4 h before treating the cells with LPS for 4 h. Cells were collected for RNA isolation and real time PCR analysis (Figure 6A).
Figure 6 Complex 5 inhibits NF-κB transactivation activity. (A) RAW264.7 cells pretreated with or without complex 5 for 4 h were treated with LPS for 4 h. The expression of TNFα, IFNβ, IL6 and IP10 were measured by QPCR. (B) HeLa S3 cells pretreated with or without complex 5 for 4 h were stimulated with TNFα for 4 h. The expression of TNFα, IL8, CCL5, ICAM1, IL6 and A20 were measured by QPCR. (C) K562 or KCL22 cells pretreated with or without 50 µg/ml of complex 5 for 4 h were stimulated with 100 ng/ml TNFα for 2 h. The expression of IL8 and TNF were measured by QPCR. […] Cell lysates were prepared and the luciferase activities were measured. […]

SMILES: NC1=[S+][Ni-2]2([P+](c3ccccc3)(c3ccccc3)c3ccccc3)[O]c3c(O)cccc3C=[N+]2N1.[Cl-] [complex 5, {2-[(2-Carbamothiolylhydrazin-1-ylidene-[kappa]2N1,S)methyl]-6-hydroxyphenolato-[kappa]O1}(triphenylphosphine-[kappa]P)nickel(II) chloride]
- IκBα degradation and p65 translocation (immunoblot) [1]: dramatically reduced
- TNF-mediated phosphorylation of IκBα (immunoblot) [1]: completely abolished
- IκBα degradation and p65 nuclear translocation (immunoblot) [2]: inhibited both IκBα degradation and p65 nuclear translocation
- LPS-induced expression of TNFα, IFNβ, IL6 and IP10 (QPCR) [3]: abolished
